Key:
purified human B cells = experiment: B cell proliferation, CFSE cell division by flow cytometry; type: cell-based; conditions: CpG-activated B cells, 5 days; for cell division compared to vehicle control: Rosiglitazone 0.5 μM, 15d-PGJ2 0.2 μM
Description: Proliferation: For cell division, a CellTrace™ CFSE Cell Proliferation Kit (Invitrogen, Carlsbad, Calif.) was used according to the manufacturer's protocol. Briefly, cells were labeled with 0.5 μM CFSE (carboxyfluorescein diacetate succinimidyl ester) for 15 minutes at 37° C., followed by two washes with 1×PBS, and then resuspended in RPMI culture media containing 10% FBS. Cells were then plated at a density of 1×10^5 cells/well in a 96-round bottom plate. Five days later, cells were acquired using a BD Biosciences FACS Calibur flow cytometer and analyzed using FlowJo software (Tree Star, Inc. Ashland, Oreg.).
Five days after activation, cells were analyzed by flow cytometry. […] FIG. 2B illustrates the percent of cell division for three different B cell donors.

peripheral blood B cells [1] = experiment: Plasma cell differentiation, CD38/CD27 surface labeling by flow cytometry; type: cell-based, human; conditions: for percentage of CD38-expressing naive B cells (CD38highCD27low) / percentage of CD38highCD27high B cells (plasma cells): 9-cis-RA 100 nM; for percentage of CD38highCD27high B cells (plasma cells): Rosiglitazone 0.5 μM, 15d-PGJ2 0.2 μM
Description: Intracellular and Surface Labeling: B cells were incubated with mouse anti-human CD19-APC (BD Biosciences), anti-human CD38-PE (BD Biosciences) and/or anti-human CD27-APC (BD Biosciences) in cold PBS with sodium azide (0.02%) and BSA (0.3%) for 20 min at 20° C. COX-2 intracellular staining was performed as described previously (Padilla et al., “Human B Lymphocytes and B Lymphomas Express PPAR-γ and Are Killed by PPAR-γ Agonists,” Clin Immunol 103:22-33 (2002), which is hereby incorporated by reference in its entirety). All samples were acquired on a BD Biosciences FACS Calibur flow cytometer and analyzed using FlowJo software (Tree Star, Inc. Ashland, Oreg.).
Peripheral-blood B lymphocytes include both naive and memory B cell populations. These two B cell subsets can be distinguished based on CD27 expression, which is a marker of memory B cells (Agematsu et al., “CD27: A Memory B-cell Marker,” Immunol Today 21:204-206 (2000), each of which is hereby incorporated by reference in its entirety).

[2] = system: purified human B lymphocytes; experiment: Antibody production, IgM and IgG ELISA of B cell supernatants; type: cell-based
Description: Antibody Production: Purified human B lymphocytes (5×10^5 cells/ml) were cultured in 96-well round-bottom microtiter plates. […] Pilot experiments were performed to optimize the doses of PPARγ and RXR ligands. […] Supernatants were harvested and the concentrations of IgM and IgG were analyzed using human-specific ELISAs (Bethyl Laboratories).

human B cells = experiment: B cell viability (7-AAD incorporation, cell size, 3H-thymidine incorporation); type: cell-based; conditions: Rosiglitazone 0.5 μM, 15d-PGJ2 0.2 μM; pilot experiments
[3] = system: Cox-2 expression in B cells; experiment: Cox-2 intracellular staining of CD19+ B cells, flow cytometry; type: cell-based, human; conditions: for percentage of B cells which express Cox-2: CpG 1 μg/ml, Rosiglitazone 0.5 μM, 15d-PGJ2 0.2 μM, 3% untreated
Description: Intracellular and Surface Labeling: B cells were incubated with mouse anti-human CD19-APC (BD Biosciences), anti-human CD38-PE (BD Biosciences) and/or anti-human CD27-APC (BD Biosciences) in cold PBS with sodium azide (0.02%) and BSA (0.3%) for 20 min at 20° C. […] All samples were acquired on a BD Biosciences FACS Calibur flow cytometer and analyzed using FlowJo software (Tree Star, Inc. Ashland, Oreg.).
Therefore, the levels of Cox-2 expression were evaluated following PPARγ ligand treatment.

PPARγ = biological target: T1, PPARγ (Homo sapiens, UniProt P37231); experiment: PPARγ gene reporter analysis (PPRE-luciferase) in transfected B cells; type: cell-based
T1 construct: normal B cells were transfected with a PPARγ luciferase reporter construct; endogenous in cells
T1 sequence (P37231 1-505): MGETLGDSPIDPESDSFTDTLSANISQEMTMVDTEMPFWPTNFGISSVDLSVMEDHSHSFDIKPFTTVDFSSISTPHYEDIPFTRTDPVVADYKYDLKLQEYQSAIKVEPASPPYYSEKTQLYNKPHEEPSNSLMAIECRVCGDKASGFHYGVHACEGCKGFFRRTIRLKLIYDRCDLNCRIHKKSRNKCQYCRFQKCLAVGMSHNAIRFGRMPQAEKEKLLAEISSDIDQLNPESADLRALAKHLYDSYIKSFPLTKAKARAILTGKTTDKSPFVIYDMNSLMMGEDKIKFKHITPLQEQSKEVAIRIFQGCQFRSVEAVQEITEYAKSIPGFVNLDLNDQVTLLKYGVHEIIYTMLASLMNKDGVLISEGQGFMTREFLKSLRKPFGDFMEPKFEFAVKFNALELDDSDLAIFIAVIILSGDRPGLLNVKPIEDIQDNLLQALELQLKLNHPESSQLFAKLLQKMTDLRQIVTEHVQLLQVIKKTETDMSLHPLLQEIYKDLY
Description: Twenty-four hours after treatments, luciferase activity was assayed using the Promega Luciferase Assay System (Madison, Wis.). Relative light units (RLU) were determined with a Lumicount Microplate Luminometer (Packard Instrument Co., Meriden, Conn., USA). Relative light units (RLU) were normalized to transfection efficiency that was monitored by cotransfection of GFP expression vector.
To test whether the PPARγ ligand concentrations used here activated PPARγ, normal B cells were transfected with a PPARγ luciferase reporter construct.

[4] = system: BLIMP-1 expression in B cells; experiment: BLIMP-1 expression in B cells, Western blot densitometry; type: cell-based, human; conditions: for BLIMP-1 induction over CpG-treated cells (densitometry): CpG 1 μg/ml plus ligand, 72 hrs
Description: (§1) Western Blots: Whole cell extracts were collected using ELB buffer (50 mM HEPES (pH 7), 250 mM NaCl, 0.1% Nonidet P-40, 5 mM EDTA, 10 mM NaF, 0.1 mM Na3VO4, 50 μM ZnCl2, supplemented with 0.1 mM PMSF, 1 mM DTT, and a mixture of protease and phosphatase inhibitors) and total protein was quantified using bicinchoninic acid protein assay (BCA assay kit) (Pierce, Rockford, Ill.). Twenty-five micrograms of protein was electrophoresed on 8-16% Precise™ protein gels (Pierce, Rockford, Ill.) and transferred to polyvinylidene fluoride (PVDF) membrane (Millipore, Billerica, Mass.). The membranes were analyzed for immunoreactivity with the indicated primary antibody, washed and then incubated with an appropriate horseradish peroxidase-conjugated secondary antibody. The membranes were visualized by chemiluminescence using an ECL kit (Pierce, Rockford, Ill.).
Lastly, BLIMP-1 expression was evaluated. BLIMP-1 is a transcription factor important in B cell differentiation (Shaffer et al., “Blimp-1 Orchestrates Plasma Cell Differentiation by Extinguishing the Mature B Cell Gene Expression Program,” Immunity 17:51-62 (2002), which is hereby incorporated by reference in its entirety). […] When B cells were treated with a combination of CpG and PPARγ ligands, there was a further increase in BLIMP-1 expression.

peripheral blood B cells [5] = conditions: Morikawa et al. 2005; cited from earlier work
[6] = system: PPARγ expression in human B cells; experiment: PPARγ expression in activated B cells, Western blot densitometry; type: cell-based; conditions: 48 hr; 2 μg/ml anti-IgM Ab, 1 μg/ml CpG; three donors; 'up to'
Description: B Cell Isolation: Normal B lymphocytes were isolated from a unit of whole blood from healthy donors with ethical permission from the Research Subjects Review Board at the University of Rochester. The isolation of normal B lymphocytes has been previously described (Ryan, et al., “Activated Human B Lymphocytes Express Cyclooxygenase-2 and Cyclooxygenase Inhibitors Attenuate Antibody Production,” J Immunol 174:2619-2626 (2005), which is hereby incorporated by reference in its entirety). Briefly, buffy coats were obtained from whole blood and peripheral blood mononuclear cells (PBMCs) were obtained using Ficoll-Paque (Amersham Biosciences AB) gradient centrifugation. […] B lymphocyte purity was >98% CD19 positive (as determined by flow cytometry, data not shown). […]
as §1, with “Twenty-five micrograms of protein was electrophoresed on 8-16% Precise™ protein gels (Pierce, Rockford, Ill.) and transferred to polyvinylidene fluoride (PVDF) membrane (Millipore, Billerica, Mass.).” left out, “The membranes were visualized by chemiluminescence using an ECL kit (Pierce, Rockford, Ill.).” left out

[7] = system: PPARγ expression in human B cells; experiment: Intracellular PPARγ staining of B cells, flow cytometry; type: cell-based; conditions: activated B cells
Description: For intracellular staining for PPARγ, untreated or activated B lymphocytes were surface stained with 20 μl of APC anti-human CD19 mAb (BD Biosciences) for 30 minutes in the dark at room temperature (RT). Cells were then fix and permeabilized with BD Cytofix/Cytoperm Fixation/Permeabilization Kit following the manufacturer's instructions. A FITC-Conjugated anti-human PPARγ antibody was used at a 1/100 dilution. An equal amount of IgG1 FITC mAb was used as an isotype control.

[8] = addition of SC-58125 10 μM, 6 days

CC1=C(/C=C/C(C)=C\C=C\C(C)=C\C(=O)O)C(C)(C)CCC1 [9-cis-RA, 9-cis-retinoic acid]
percentage of dividing cells (purified human B cells; ligand alone, 9-cis-RA 100 nM): increased the percentage of dividing cells
CD38highCD27high cells, fold over vehicle (peripheral blood B cells [1]; CpG 1 μg/ml, 5 days): ~1.7 fold
CD38highCD27low cells, fold vs. CpG plus vehicle (peripheral blood B cells [1]; CpG 1 μg/ml, 5 days): ~3.5 fold
percentage of CD38-expressing naive B cells (CD38highCD27low) (peripheral blood B cells [1]; CpG 1 μg/ml, 5 days): 30.2±5.5%
percentage of CD38highCD27high B cells (plasma cells) (peripheral blood B cells [1]; CpG 1 μg/ml, 5 days): 10.3±1.9%
IgG production over vehicle control ([2]; CpG-activated cells, 6 days): significantly induced
IgM production over vehicle control ([2]; CpG-activated cells, 6 days): significantly induced

CCCCCC=CC=C1C(=O)C=C[C@@H]1CC=CCCCC(=O)O [15d-PGJ2, 15-deoxy-Δ^12,14 Prostaglandin J2]
cell viability (human B cells): did not adversely affect cell viability
cell division compared to vehicle control (purified human B cells): increased cell division
CD38highCD27high cells, fold over vehicle (peripheral blood B cells [1]; CpG 1 μg/ml, 5 days): ~2 fold
percentage of CD38highCD27high B cells (plasma cells) (peripheral blood B cells [1]; CpG 1 μg/ml, 5 days): 12.5±1.4%
percentage of B cells which express Cox-2 [3]: 43%
luciferase activity (PPRE reporter) (PPARγ; CpG-activated B cells, 24 h treatment, Rosiglitazone 0.5 μM, 15d-PGJ2 0.2 μM): increased luciferase activity
BLIMP-1 induction over CpG-treated cells (densitometry) [4]: ~9 fold

CC1=C(/C=C/C(C)=C/C=C/C(C)=C/C(=O)O)C(C)(C)CCC1 [ATRA, all-trans-retinoic acid]
CD38 expression (peripheral blood B cells [5]): induces CD38 expression
antibody production (peripheral blood B cells [5]): increases antibody production

O=C(Nc1ccccc1)c1cc([N+](=O)[O-])ccc1Cl [GW9662]
PPARγ ligand-induced CD38 expression in memory B cells (peripheral blood B cells [1]; with GW9662 500 nM, CpG): attenuated
expression of BLIMP-1 compared to CpG alone ([4]; CpG and GW9662 500 nM): decrease
increase in BLIMP-1 by Rosiglitazone and 15d-PGJ2 ([4]; CpG-activated B cells, with GW9662 500 nM): dramatically attenuated
effects of PPARγ ligands on IgG production ([2]; with GW9662 500 nM, CpG, 6 days): abolished

CN(CCOc1ccc(CC2SC(=O)NC2=O)cc1)c1ccccn1 (centres unmarked) [Rosiglitazone, 5-[4-[2-[N-methyl-N-(2-pyridyl)amino]ethoxy]benzyl]thiazolidine-2,4-dione]
cell viability (human B cells): did not adversely affect cell viability
cell division compared to vehicle control (purified human B cells): increased cell division
percentage of CD38highCD27high B cells (plasma cells) (peripheral blood B cells [1]; CpG 1 μg/ml, 5 days): 10.7±1.6%
percentage of B cells which express Cox-2 [3]: 36%
BLIMP-1 induction over CpG-treated cells (densitometry) [4]: ~6 fold

CS(=O)(=O)c1ccc(-n2nc(C(F)(F)F)cc2-c2ccc(F)cc2)cc1 [SC-58125]
IgG production of CpG-stimulated B cells [2, 8]: significantly reduced
IgM production of CpG-stimulated B cells [2, 8]: significantly reduced
increased antibody production upon PPARγ ligand treatment ([2]; addition of SC-58125 10 μM, CpG, 6 days): significantly reduced

CpG: CpG oligodeoxynucleotides 2395 5′-TCGTCGTTTTCGGCGCGCGCCG-3′ (SEQ ID NO: 1), a TLR-9 ligand, mitogen (chemistry not given here)
PPARγ protein levels increase compared to untreated B cells (densitometry of Western blot) [6]: ≤ 14.3 fold
percentage of CD38-expressing naive B cells (CD38highCD27low) (peripheral blood B cells [1]; CpG 1 μg/ml, 5 days): 9.1±0.6%
percentage of CD38highCD27high B cells (plasma cells) (peripheral blood B cells [1]; CpG 1 μg/ml, 5 days): 7.0±1.7%
percentage of B cells which express Cox-2 [3]: 27%
levels of Cox-2 expression (mean fluorescence intensity) ([3]; FIG. 6B): increased the levels of Cox-2 expression
intracellular PPARγ levels compared to untreated B cells [7]: increased
PPARγ activity (PPRE reporter) (PPARγ; CpG-activated B cells with no exogenous PPARγ ligand): did not induce PPARγ activity
BLIMP-1 protein levels compared to untreated or freshly isolated B cells ([4]; CpG treatment): significantly upregulated
IgG production ([2]; CpG 1 μg/ml alone, 5 days): significantly induced
IgM production ([2]; CpG 1 μg/ml alone, 5 days): significantly induced

Source: patent US20110300129A1, “SYSTEMS AND METHODS FOR ENHANCING VACCINE EFFICACY” (UNIVERSITY OF ROCHESTER, priority 2008, published 2011)
